c1cnc2[nH]ccc2c1
solubility (mole fraction)
Details | 278.15 K | 283.15 K | 288.15 K | 293.15 K | 298.15 K | 303.15 K | 308.15 K | 313.15 K | 318.15 K | 323.15 K
in THF | 0.343 | 0.361 | 0.377 | 0.397 | 0.419 | 0.436 | 0.458 | 0.479 | 0.5 | 0.523
in acetone | 0.262 | 0.282 | 0.301 | 0.322 | 0.341 | 0.361 | 0.383 | 0.402 | 0.423 | 0.443
in acetonitrile | 0.11 | 0.116 | 0.124 | 0.134 | 0.145 | 0.159 | 0.174 | 0.193 | 0.214 | 0.242
in ethanol | 0.152 | 0.172 | 0.191 | 0.211 | 0.232 | 0.252 | 0.275 | 0.299 | 0.326 | 0.356
in ethyl acetate | 0.21 | 0.217 | 0.226 | 0.237 | 0.251 | 0.265 | 0.283 | 0.302 | 0.324 | 0.346
in isopropanol | 0.204 | 0.217 | 0.231 | 0.247 | 0.262 | 0.279 | 0.298 | 0.315 | 0.336 | 0.36
in methanol | 0.228 | 0.238 | 0.25 | 0.262 | 0.277 | 0.293 | 0.31 | 0.33 | 0.351 | 0.372
in n-hexane | 0.0192 | 0.0201 | 0.0215 | 0.0234 | 0.0256 | 0.0279 | 0.0307 | 0.0337 | 0.0376 | 0.0425
in n-propanol | 0.19 | 0.202 | 0.215 | 0.233 | 0.253 | 0.272 | 0.291 | 0.312 | 0.333 | 0.359
